Among the data in PubChem BioAssay (NCI) are TGI and GI50 values, retold here.

Structures are written as SMILES.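 Test compounds were applied to cells in 96-well plates for 48 hours at 5 doses. GI50: concentration for 50% inhibition of growth. At the TGI there is no net growth.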

Test systems include RXF 393 renal; 786-0 renal; HCT-15 colon; NCI-H460 lung; CAKI-1 renal; EKVX NSCLC; SF-539 CNS; KM12 colon; SF-268 CNS; IGROV1 ovarian.
Holding throughout (assay): NCI tumour cell line growth inhibition, 48 h

As for `CC1C[C@H](OC(N)=O)C(C)CC1=O` (stereo partly specified), the TGI in the assay with RXF 393 renal, in the assay with 786-0 renal, in the assay with HCT-15 colon, in the assay on NCI-H460 lung, with CAKI-1 renal and in the assay on EKVX NSCLC was over 100 µM throughout. Besides, the TGI in the assay with SF-539 CNS, in the assay on KM12 colon, with SF-268 CNS and in the assay with IGROV1 ovarian was over 100 µM throughout.

Regarding `COc1ccc(Nn2c(SCC(=O)Nc3nc(-c4ccc(Cl)cc4)cs3)nc(C)c2C)cc1`, the GI50 was 3.53 µM with RXF 393 renal; 3.46 µM in the assay with 786-0 renal; 4.79 µM in the assay with HCT-15 colon; 2.69 µM with NCI-H460 lung; 2.16 µM in the assay with CAKI-1 renal; 1.92 µM with EKVX NSCLC. Besides, the GI50 in the assay with SF-539 CNS was 4.15 µM; in the assay on KM12 colon it was 1.84 µM; in the assay on SF-268 CNS it was 2.81 µM; with IGROV1 ovarian it was 5.67 µM. For the same molecule, the TGI was 9.64 µM in the assay on RXF 393 renal; 18.2 µM with 786-0 renal; over 100 µM in the assay with HCT-15 colon; 10.6 µM with NCI-H460 lung; over 100 µM in the assay with CAKI-1 renal; over 100 µM with EKVX NSCLC. Besides, the TGI in the assay on SF-539 CNS is over 100 µM; in the assay on KM12 colon, 11.1 µM; in the assay with SF-268 CNS, over 100 µM; in the assay with IGROV1 ovarian, over 100 µM.

On to `CCCCCCCC/C=C/CCCCCCCC1=NCC[N+]1(CCO)CCO`, for which the GI50 was 1.73 µM in the assay with RXF 393 renal; 4.8 µM with 786-0 renal; 3.16 µM in the assay on HCT-15 colon; 1.69 µM with NCI-H460 lung; 2.41 µM with CAKI-1 renal; 4.71 µM in the assay on EKVX NSCLC. Further, the GI50 with SF-539 CNS is 3.7 µM; in the assay with KM12 colon, 1.87 µM; with SF-268 CNS, 3.25 µM; in the assay on IGROV1 ovarian, 1.59 µM. For the same molecule, the TGI with RXF 393 renal came out at 4.2 µM; with 786-0 renal, 22.1 µM; in the assay with HCT-15 colon, 11 µM; in the assay on NCI-H460 lung, 3.39 µM; in the assay on CAKI-1 renal it was 8.32 µM; with EKVX NSCLC, 26.4 µM. For the same molecule, the TGI with SF-539 CNS was determined as 13.1 µM; in the assay with KM12 colon it was 3.61 µM; with SF-268 CNS, 13 µM; in the assay on IGROV1 ovarian, 3.35 µM.

For the molecule `COc1ccc(NC(=O)n2nc(N)c3ccccc32)cc1OC`, the GI50 is 95.2 µM in the assay with RXF 393 renal; over 100 µM with 786-0 renal; 44.1 µM in the assay with HCT-15 colon; 34.5 µM in the assay on NCI-H460 lung; over 100 µM in the assay with CAKI-1 renal; 54.1 µM with EKVX NSCLC. Besides, the GI50 was 95.9 µM in the assay on SF-539 CNS, 67.9 µM in the assay on KM12 colon, 49.6 µM in the assay on SF-268 CNS and 18.1 µM in the assay with IGROV1 ovarian. Also, the TGI in the assay on RXF 393 renal, in the assay on 786-0 renal, in the assay on HCT-15 colon, with NCI-H460 lung, in the assay with CAKI-1 renal and with EKVX NSCLC was over 100 µM throughout. Besides, the TGI with SF-539 CNS is over 100 µM; with KM12 colon, over 100 µM; with SF-268 CNS, over 100 µM; in the assay on IGROV1 ovarian it was 84 µM.

On to `C=C(C)[C@@H]1CC[C@]2(C)[C@H](C(=O)C=C3[C@@H]4C[C@](C)(C(=O)N5CCN(C)CC5)CC[C@]4(C)CC[C@]32C)[C@@]1(C)CCC#N`, for which the GI50 with RXF 393 renal was 5.32 µM; with 786-0 renal, 7.03 µM; in the assay on HCT-15 colon, 4.2 µM; in the assay on NCI-H460 lung, 6.48 µM; in the assay on CAKI-1 renal, 6.27 µM; in the assay on EKVX NSCLC it was 7.24 µM. For the same molecule, the GI50 with SF-539 CNS is 6.3 µM; in the assay with KM12 colon, 6.43 µM; in the assay with SF-268 CNS, 7.26 µM; in the assay with IGROV1 ovarian, 6.58 µM. Also, the TGI amounted to 11.4 µM with RXF 393 renal; 13.7 µM in the assay with 786-0 renal; 10.9 µM with HCT-15 colon; 13.9 µM in the assay with NCI-H460 lung; 12.5 µM with CAKI-1 renal; 14 µM with EKVX NSCLC. Further, the TGI worked out at 12.7 µM with SF-539 CNS, 13.4 µM with KM12 colon, 15.2 µM in the assay on SF-268 CNS and 14.6 µM in the assay with IGROV1 ovarian.

With `Cc1nc2sccn2c(=O)c1CCN1CCC(=C(c2ccc(F)cc2)c2ccc(F)cc2)CC1`, the GI50 in the assay with RXF 393 renal is 11.3 µM; in the assay with 786-0 renal, 12 µM; in the assay on HCT-15 colon, 4.53 µM; with NCI-H460 lung, 7.49 µM; in the assay on CAKI-1 renal, 12.9 µM; in the assay on EKVX NSCLC, 10.7 µM. Further, the GI50 is 15 µM in the assay with SF-539 CNS, 12.2 µM with KM12 colon, 15.9 µM with SF-268 CNS and 9.96 µM in the assay on IGROV1 ovarian. For the same molecule, the TGI turned out to be 26.9 µM in the assay on RXF 393 renal; 27.8 µM with 786-0 renal; 17.5 µM in the assay with HCT-15 colon; 22.7 µM with NCI-H460 lung; 25.7 µM in the assay on CAKI-1 renal; 24.1 µM in the assay on EKVX NSCLC. For the same molecule, the TGI in the assay on SF-539 CNS is 28.9 µM; in the assay on KM12 colon it was 27.4 µM; with SF-268 CNS it was 32.8 µM; with IGROV1 ovarian, 26.4 µM.

Turning to `CSc1cnn(CCC#N)c(=O)n1`, the TGI in the assay with RXF 393 renal, in the assay with 786-0 renal, in the assay with CAKI-1 renal, in the assay with EKVX NSCLC, in the assay on SF-539 CNS and in the assay with KM12 colon was over 100 µM throughout. Besides, the TGI in the assay on SF-268 CNS and in the assay on IGROV1 ovarian was over 100 µM in each case.

`Brc1ccc(-c2nnc(-c3nn(-c4ccccc4)c4nc5ccccc5nc34)o2)cc1`: the TGI with RXF 393 renal, with 786-0 renal, in the assay with NCI-H460 lung, with CAKI-1 renal, in the assay with EKVX NSCLC and with SF-539 CNS was over 100 µM each time. Moreover, the TGI with KM12 colon, with SF-268 CNS and in the assay with IGROV1 ovarian was over 100 µM in each case.

Consider `O=C(CC1(O)C(=O)Nc2ccccc21)c1ccccc1Cl` (stereo unspecified), for which the TGI in the assay with RXF 393 renal, in the assay with 786-0 renal, with HCT-15 colon, in the assay with NCI-H460 lung, with CAKI-1 renal and with EKVX NSCLC was over 100 µM in each case. Besides, the TGI in the assay with SF-539 CNS, with SF-268 CNS and in the assay with IGROV1 ovarian was over 100 µM throughout.
